Experimental findings from patent US20230219962A1, “PYRAZOLO[4,3-d]PYRIMIDINE DERIVATIVES AND METHODS OF USE THEREOF FOR THE TREATMENT OF CELLULAR PROLIFERATIVE DISORDERS” (Merck Sharp & Dohme LLC, priority 2020, published 2023) are described below.

One may read the EC50 as the midpoint of the concentration-response curve. Low values mean a more potent agent, high ones a less potent agent.

Each structure is given as a SMILES string.

For one assay, the target named is T1, hTLR7 (Homo sapiens, UniProt Q9NYK1).
T1 construct: host or cells: HEK-Blue hTLR7 cells (HEK293-derived, own knowledge)
T1 sequence (Q9NYK1 27-1049): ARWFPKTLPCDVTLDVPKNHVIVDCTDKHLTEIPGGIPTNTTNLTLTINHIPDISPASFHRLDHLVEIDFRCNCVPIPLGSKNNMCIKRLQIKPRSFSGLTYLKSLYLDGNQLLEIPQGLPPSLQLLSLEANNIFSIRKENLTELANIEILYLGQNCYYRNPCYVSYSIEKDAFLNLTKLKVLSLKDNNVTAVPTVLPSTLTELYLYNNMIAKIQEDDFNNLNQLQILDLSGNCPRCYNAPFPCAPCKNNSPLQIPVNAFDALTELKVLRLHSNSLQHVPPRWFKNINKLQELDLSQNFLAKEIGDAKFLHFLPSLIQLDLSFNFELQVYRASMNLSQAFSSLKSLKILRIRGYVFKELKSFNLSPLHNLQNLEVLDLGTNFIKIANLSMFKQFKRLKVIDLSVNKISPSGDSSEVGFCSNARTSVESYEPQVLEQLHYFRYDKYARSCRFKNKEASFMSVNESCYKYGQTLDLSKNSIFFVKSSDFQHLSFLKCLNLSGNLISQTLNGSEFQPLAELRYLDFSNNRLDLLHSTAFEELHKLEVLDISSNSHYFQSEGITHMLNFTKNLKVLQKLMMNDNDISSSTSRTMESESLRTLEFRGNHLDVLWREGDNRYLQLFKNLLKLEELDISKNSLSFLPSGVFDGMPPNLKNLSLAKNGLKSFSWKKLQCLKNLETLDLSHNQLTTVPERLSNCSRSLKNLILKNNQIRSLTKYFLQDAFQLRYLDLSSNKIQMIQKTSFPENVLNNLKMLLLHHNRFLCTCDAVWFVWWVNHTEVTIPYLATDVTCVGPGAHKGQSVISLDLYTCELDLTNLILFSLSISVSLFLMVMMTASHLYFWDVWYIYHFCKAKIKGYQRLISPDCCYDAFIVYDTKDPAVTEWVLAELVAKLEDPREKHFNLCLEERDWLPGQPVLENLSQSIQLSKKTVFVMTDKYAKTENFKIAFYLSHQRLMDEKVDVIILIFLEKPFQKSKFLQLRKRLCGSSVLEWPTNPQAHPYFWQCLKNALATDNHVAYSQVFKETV
Briefly: Human TLR7 Reporter Assay. Type of assay: cell-based. Particulars: HEK-Blue hTLR7 cells, 16 hours, normalized to CL097 (6 μM) and DMSO. The method, then:
(§1) HEK-Blue™ hTLR7 cells (Invivogen, San Diego, Calif.) were maintained at 37° C./5% CO2/90% relative humidity in Dulbecco's Modified Eagle's Medium with 10% fetal bovine serum, 100 units/mL penicillin, 100 μg/mL streptomycin, 100 μg/mL normocin, 10 μg/mL blasticidin, and 100 μg/mL zeocin. HEK-Blue™ hTLR7 cells were maintained at 10-90% confluence and used before passage 20. For this assay, test compounds were dissolved in DMSO, and 10-point serial 3-fold dilution series in DMSO were prepared in Echo Qualified 384-well Polypropylene Microplates (Labcyte, San Jose, Calif.). Assay plates (384-well flat, clear bottom, black polystyrene TC-treated microtiter plates; Corning, Corning, N.Y.) were prepared by dispensing 150 nL of test compounds, high control (CL097; Invivogen, San Diego, Calif.), and low control (DMSO) by ECHO acoustic dispenser (Labcyte, San Jose Calif.) followed by addition of 5 μL of HEK-Blue™ Detection assay media (Invivogen, San Diego, Calif.). HEK-Blue™ hTLR7 cells in HEK-Blue™ Detection assay media (20,000 cells per well in 45 μL of media) were added to the assay plate and incubated for 16 hours at 37° C./5% CO2/90% relative humidity. For detection, assay plates were removed from the incubator, allowed to cool to ambient temperature, centrifuged at 200×g for 1 minutes, and read with an EnSpire Multimode Plate Reader (Perkin Elmer, Waltham, Mass.) for absorbance at 620 nm. Test compound effects were normalized to the window defined by the controls, CL097 (6 μM), and DMSO. Calculated % effects were fit using a 4-parameter algorithm, and EC50 was reported.
On the technique in general: In a reporter assay the amount or activity of a reporter protein is the signal.

The next assay has as its target T2, hTLR8 (Homo sapiens, UniProt Q9NR97).
T2 construct: host or cells: HEK-Blue hTLR8 cells (HEK293-derived, own knowledge)
T2 sequence (Q9NR97 27-1041): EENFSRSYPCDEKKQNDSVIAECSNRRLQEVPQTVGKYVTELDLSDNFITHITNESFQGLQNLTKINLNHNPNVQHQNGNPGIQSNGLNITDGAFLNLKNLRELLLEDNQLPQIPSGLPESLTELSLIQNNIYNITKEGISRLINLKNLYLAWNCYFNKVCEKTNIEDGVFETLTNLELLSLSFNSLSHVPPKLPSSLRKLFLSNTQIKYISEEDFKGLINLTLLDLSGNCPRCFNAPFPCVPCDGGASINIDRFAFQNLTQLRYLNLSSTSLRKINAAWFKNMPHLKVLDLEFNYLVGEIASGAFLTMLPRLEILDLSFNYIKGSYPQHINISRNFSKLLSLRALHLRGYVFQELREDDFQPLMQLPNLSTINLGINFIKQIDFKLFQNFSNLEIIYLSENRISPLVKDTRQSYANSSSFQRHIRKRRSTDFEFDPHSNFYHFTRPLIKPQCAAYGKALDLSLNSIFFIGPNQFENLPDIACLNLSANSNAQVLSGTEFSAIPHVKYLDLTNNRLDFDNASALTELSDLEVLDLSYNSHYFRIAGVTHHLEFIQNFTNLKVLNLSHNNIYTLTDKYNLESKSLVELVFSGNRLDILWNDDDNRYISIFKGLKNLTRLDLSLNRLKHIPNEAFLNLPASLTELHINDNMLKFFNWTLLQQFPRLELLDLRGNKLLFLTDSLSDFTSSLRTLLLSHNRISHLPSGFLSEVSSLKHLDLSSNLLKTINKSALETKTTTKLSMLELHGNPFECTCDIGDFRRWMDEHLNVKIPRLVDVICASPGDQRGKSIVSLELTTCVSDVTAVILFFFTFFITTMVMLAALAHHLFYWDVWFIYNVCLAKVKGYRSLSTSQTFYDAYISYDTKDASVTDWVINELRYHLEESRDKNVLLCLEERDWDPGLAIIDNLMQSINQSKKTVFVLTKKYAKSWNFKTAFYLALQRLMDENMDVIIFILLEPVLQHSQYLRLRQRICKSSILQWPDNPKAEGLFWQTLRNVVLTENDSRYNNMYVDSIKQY
As to the kind of experiment: Human TLR8 Reporter Assay. The assay is classed as cell-based. Particulars: HEK-Blue hTLR8 cells, 16 hours, normalized to tl8-506 (1 μM) and DMSO. How it is done:
as §1, with “hTLR8” for “hTLR7”, “(tl8-506;” for “(CL097;”, “tl8-506 (1” for “CL097 (6”

For `CCCCC(CCO)Nc1nc(N)nc2cn(Cc3ccccc3OC)nc12` (stereo not drawn) [Compound 16], the half-maximal effective concentration (EC50) on hTLR7 is 86.2 nM; at hTLR8, > 9980 nM.

`CCC[C@@H](CO)Nc1nc(N)nc2cn(Cc3c(OC)cc(C(C)N)cc3OC)nc12` (stereo partly drawn) [Compound 224]: the results for the EC50 on hTLR7 and at hTLR8 were 3650 nM and 2250 nM, respectively.

With `COc1cccc(OC)c1Cn1cc2nc(N)nc(NCC(C)O)c2n1` (stereo not drawn) [Compound 48], the EC50 at hTLR7 is 7720 nM; at hTLR8, > 29900 nM.

Consider `CCCCNc1nc(N)nc2cn(Cc3c(OC)cc(CCN)cc3OC)nc12` [Compound 67], for which the EC50 at hTLR7 was found to be 281 nM; at hTLR8, 392 nM.

For `CCCCNc1nc(N)nc2cn(Cc3ccc(C4CNCCN4)cc3OC)nc12` (stereo not drawn) [Compound 234], the EC50 on hTLR7 came to 1490 nM; on hTLR8 it was 9820 nM.

In the case of `CCCC(C)Nc1nc(N)nc2cn(Cc3c(OC)cc(CNC)cc3OC)nc12` (stereo not drawn) [Compound 164], the half-maximal effective concentration (EC50) came to 110 nM at hTLR7 and 168 nM at hTLR8.

As to `CCNc1nc(N)nc2cn(Cc3c(OC)cccc3OC)nc12` [Compound 44], the EC50 was 858 nM at hTLR7 and 3930 nM on hTLR8.

For the compound `CCC[C@@H](CO)Nc1nc(N)nc2cn(Cc3c(OC)cc(CN(C)CCN)cc3OC)nc12` [Compound 213], the EC50 was 4750 nM on hTLR7 and 2230 nM at hTLR8.

Regarding `CCCCNc1nc(N)nc2cn(Cc3ccc(N4CC5(CNC5)C4)cc3OC)nc12` [Compound 116], the EC50 on hTLR7 worked out at 988 nM; on hTLR8, 4200 nM.

Take `CCCCNc1nc(N)nc2cn(Cc3ccc(C(C)N(C)CCC)cc3OC)nc12` (stereo not drawn) [Compound 233]: the EC50 on hTLR7 worked out at 32.3 nM; on hTLR8 it was 456 nM.

Regarding `CCCCNc1nc(N)nc2cn(Cc3ccc(C4CCNC4)cc3)nc12` (stereo not drawn) [Compound 196], the values for the EC50 on hTLR7 and at hTLR8 were 456 nM and 756 nM, respectively.

For the compound `CCCCNc1nc(N)nc2cn(Cc3ccc(C4CCCN4)cc3)nc12` (stereo not drawn) [Compound 204], the values for the concentration giving a half-maximal response (EC50) at hTLR7 and on hTLR8 were 508 nM and 533 nM, respectively.

On to `CCCCNc1nc(N)nc2cn(Cc3ccc(CN4CCN(C(=O)CN5C(=O)C=CC5=O)CC4)cc3OC)nc12` [Compound 105], for which the EC50 was 1790 nM on hTLR7 and 6400 nM at hTLR8.

Take `CCCCNc1nc(N)nc2cn(Cc3[nH]cnc3C)nc12` [Compound 188]: the EC50 was determined as 5440 nM on hTLR7 and 12400 nM on hTLR8.

Turning to `CCC[C@@H](CO)Nc1nc(N)nc2cn(Cc3ccc(CN4CC(CN)C4)cc3OC)nc12` [Compound 149], the EC50 turned out to be 5180 nM on hTLR7 and 1180 nM at hTLR8.

On to `CCCCNc1nc(N)nc2cn(Cc3ccc(C4CCCN4)cc3OC)nc12` (stereo not drawn) [Compound 236], for which the values for the EC50 on hTLR7 and at hTLR8 were 241 nM and 2870 nM, respectively.

As to `CCCCNc1nc(N)nc2cnn(Cc3c(OC)cc(CN4CCNCC4)cc3OC)c12` [Compound 63], the values for the 50% effective concentration (EC50) on hTLR7 and at hTLR8 were 50.8 nM and 2410 nM, respectively.

On to `CCCCNc1nc(N)nc2cn(Cc3ccc4c(c3)CCC4N)nc12` (stereo not drawn) [Compound 238], for which the EC50 was 254 nM on hTLR7 and 1880 nM at hTLR8.

Consider `CCCCNc1nc(N)nc2cn(Cc3cn(C)nc3OC)nc12` [Compound 197], for which the EC50 on hTLR7 stood at 277 nM; on hTLR8, 1590 nM.

Take `CCCCNc1nc(N)nc2cn(Cc3ccc(C(C)N(C)C)cc3OC)nc12` (stereo not drawn) [Compound 219]: the EC50 on hTLR7 is 122 nM; on hTLR8, 275 nM.

With `CCCCNc1nc(N)nc2cn(Cc3nc(NCCCN)ccc3OC)nc12` [Compound 162], the EC50 at hTLR7 is 160 nM; on hTLR8, 1010 nM.

For the compound `CCCCNc1nc(N)nc2cn(Cc3ncoc3C)nc12` [Compound 121], the EC50 on hTLR7 was 490 nM; on hTLR8 it was 2320 nM.

In the case of `CCCCNc1nc(N)nc2cn(Cc3ccc(CN4CCN(C(=O)C5CCC(CN6C(=O)C=CC6=O)CC5)CC4)cc3OC)nc12` (stereo not drawn) [Compound 69], the EC50 on hTLR7 was 243 nM; at hTLR8, 1490 nM.

In the case of `CCCCNc1nc(N)nc2cn(Cc3ccc(NCCCN)cn3)nc12` [Compound 144], the values for the EC50 at hTLR7 and at hTLR8 were 170 nM and 3810 nM, respectively.

Turning to `CCCCNc1nc(N)nc2cn(Cc3scnc3C)nc12` [Compound 181], the figures for the concentration giving a half-maximal response (EC50) on hTLR7 and on hTLR8 were 171 nM and 1500 nM, respectively.

On to `CCC[C@@H](CO)Nc1nc(N)nc2cn(Cc3ncccc3OC)nc12` [Compound 133], for which the EC50 was found to be 114 nM on hTLR7 and 161 nM on hTLR8.

In the case of `CCCCNc1nc(N)nc2cn(Cc3ncccc3OC)nc12` [Compound 8], the 50% effective concentration (EC50) at hTLR7 worked out at 50.9 nM; on hTLR8 it was 546 nM.
